Key:
CDK14 [1] = target: T1, CDK14 (Homo sapiens, UniProt O94921); experiment: LanthaScreen CDK14 binding assay
Target sequence in this assay (O94921 whole entry): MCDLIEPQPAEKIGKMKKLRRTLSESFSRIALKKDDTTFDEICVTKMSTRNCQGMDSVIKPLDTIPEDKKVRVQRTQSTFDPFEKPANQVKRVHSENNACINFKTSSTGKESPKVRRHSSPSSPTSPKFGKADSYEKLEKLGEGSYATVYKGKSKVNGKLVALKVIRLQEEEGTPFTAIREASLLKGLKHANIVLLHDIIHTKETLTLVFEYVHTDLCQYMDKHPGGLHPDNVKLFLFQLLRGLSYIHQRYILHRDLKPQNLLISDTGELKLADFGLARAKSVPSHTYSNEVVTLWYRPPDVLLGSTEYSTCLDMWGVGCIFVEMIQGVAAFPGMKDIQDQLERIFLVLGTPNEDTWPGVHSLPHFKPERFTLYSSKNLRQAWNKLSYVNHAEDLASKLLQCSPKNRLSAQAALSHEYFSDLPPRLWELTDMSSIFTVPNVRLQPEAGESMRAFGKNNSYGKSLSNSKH
Target sequence in this assay (Q8ND76 whole entry partner): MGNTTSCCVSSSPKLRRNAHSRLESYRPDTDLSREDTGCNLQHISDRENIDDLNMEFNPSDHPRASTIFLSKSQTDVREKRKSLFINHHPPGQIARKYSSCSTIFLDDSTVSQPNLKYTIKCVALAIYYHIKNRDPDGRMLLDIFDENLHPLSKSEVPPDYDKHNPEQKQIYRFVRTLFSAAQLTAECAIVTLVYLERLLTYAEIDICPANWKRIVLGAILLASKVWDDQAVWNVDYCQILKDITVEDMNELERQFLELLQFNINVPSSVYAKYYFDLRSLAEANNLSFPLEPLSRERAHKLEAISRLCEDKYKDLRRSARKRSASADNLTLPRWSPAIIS

CDK16 = CDK16 (Homo sapiens, UniProt Q00536); experiment: KiNativ profiling; format: cell-based; conditions: read-out: CDK16 percent inhibition relative to DMSO
CDK2 = CDK2 (Homo sapiens, UniProt P24941); experiment: KiNativ profiling; format: cell-based; conditions: read-out: CDK2 percent inhibition relative to DMSO
CDK10 = CDK10 (Homo sapiens, UniProt Q15131); experiment: KiNativ profiling; format: cell-based; conditions: read-out: CDK10 percent inhibition relative to DMSO
Sequence of CDK10 (Q15131 whole entry): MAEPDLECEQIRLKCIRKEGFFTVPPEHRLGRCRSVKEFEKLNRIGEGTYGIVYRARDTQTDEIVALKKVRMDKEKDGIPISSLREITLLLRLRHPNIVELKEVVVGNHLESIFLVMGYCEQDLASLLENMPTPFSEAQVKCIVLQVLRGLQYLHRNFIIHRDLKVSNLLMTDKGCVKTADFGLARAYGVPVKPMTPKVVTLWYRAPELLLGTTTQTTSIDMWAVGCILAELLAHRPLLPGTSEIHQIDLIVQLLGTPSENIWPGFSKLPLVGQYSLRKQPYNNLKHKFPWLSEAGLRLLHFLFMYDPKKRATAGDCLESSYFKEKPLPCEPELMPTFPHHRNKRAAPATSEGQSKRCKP

CDK14 [2] = target: T1, CDK14; experiment: Biotin JNK-IN-7 pull-down assay, cellular CDK14 engagement; conditions: for concentration at which CDK14 pulldown is blocked / effects shown / activity in the cellular pull-down assay: cells treated 4 h
Target sequence in this assay (O94921 whole entry): as the sequence (O94921 whole entry) above

HCT116 cell line = experiment: CellTiter-Glo proliferation assay; format: cell-based

Sequence of CDK16 (Q00536 whole entry): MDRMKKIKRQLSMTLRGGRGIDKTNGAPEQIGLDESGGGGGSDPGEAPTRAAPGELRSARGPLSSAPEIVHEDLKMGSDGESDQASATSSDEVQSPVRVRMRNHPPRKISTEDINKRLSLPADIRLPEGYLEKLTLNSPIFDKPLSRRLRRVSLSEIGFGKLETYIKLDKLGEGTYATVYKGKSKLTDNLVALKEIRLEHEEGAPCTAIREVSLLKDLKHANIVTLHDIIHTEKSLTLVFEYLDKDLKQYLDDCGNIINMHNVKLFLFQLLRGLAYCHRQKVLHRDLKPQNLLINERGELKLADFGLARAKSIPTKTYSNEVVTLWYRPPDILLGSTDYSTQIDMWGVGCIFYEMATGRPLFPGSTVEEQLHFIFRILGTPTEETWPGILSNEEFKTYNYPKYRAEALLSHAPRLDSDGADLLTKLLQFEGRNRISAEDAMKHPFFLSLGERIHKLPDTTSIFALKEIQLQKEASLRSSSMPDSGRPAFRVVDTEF

Cc1cc(NC(=O)c2cccc(NC(=O)/C=C/CN(C)C)c2)ccc1NC(=O)c1n[nH]cc1NC(=O)c1c(Cl)cccc1Cl.O=C(O)C(F)(F)F [Compound 48]
CDK14 binding potency (CDK14 [1]): not tolerated by CDK14

CN(C)C/C=C/C(=O)Nc1cccc(S(=O)(=O)N2CCC(NC(=O)c3n[nH]cc3NC(=O)c3c(Cl)cc(Cl)cc3Cl)CC2)c1.O=C(O)C(F)(F)F [Compound 100]
inhibition at 1 µM (CDK16): > 75%
inhibition at 1 µM (CDK2): > 75%
inhibition at 1 µM (CDK10): > 75%
concentration for complete inhibition of CDK14 pull-down (CDK14 [2]): below 1 μM

C=CC(=O)Nc1cccc(C(=O)Nc2ccc(NC(=O)c3n[nH]cc3NC(=O)c3c(Cl)cccc3Cl)c(C)c2)c1.O=C(O)C(F)(F)F [Compound 47]
CDK14 binding potency (CDK14 [1]): not tolerated by CDK14

CN(C)C/C=C/C(=O)Nc1cccc(S(=O)(=O)N2CCC(NC(=O)c3n[nH]cc3NC(=O)c3ccccc3)CC2)c1.O=C(O)C(F)(F)F [Compound 107]
CDK14 binding potency (CDK14 [1]): potent CDK14 inhibition
HCT116 toxicity (HCT116 cell line): reduced HCT116 toxicity

C=CC(=O)Nc1cccc(C(=O)N2CCC(NC(=O)c3n[nH]cc3NC(=O)c3c(Cl)cccc3Cl)CC2)c1.O=C(O)C(F)(F)F [Compound 27]
concentration at which CDK14 pulldown is blocked / effects shown (CDK14 [2]): 500 to 1000 nM

CN(C)CC/C=C/C(=O)Nc1ccc(S(=O)(=O)N2CC[C@@H](NC(=O)c3n[nH]cc3NC(=O)c3c(Cl)cccc3Cl)C2)cc1.O=C(O)C(F)(F)F [Compound 68]
activity in the cellular pull-down assay (CDK14 [2]): not active, or weakly active

CN(C)C/C=C/C(=O)Nc1cccc(C(=O)Nc2ccc(NC(=O)c3n[nH]cc3NC(=O)c3c(Cl)cccc3Cl)cc2)c1.O=C(O)C(F)(F)F [Compound 46]
concentration at which CDK14 pulldown is blocked / effects shown (CDK14 [2]): 500 to 1000 nM

CN(C)CC/C=C/C(=O)Nc1ccc(N2CCC(NC(=O)c3n[nH]cc3NC(=O)c3c(Cl)cccc3Cl)CC2)cc1.O=C(O)C(F)(F)F [Compound 54]
HCT116 toxicity (HCT116 cell line): low HCT116 toxicity

O=C(NC1CCNCC1)c1n[nH]cc1NC(=O)c1c(Cl)cccc1Cl [AT7519, N-(4-piperidinyl)-4-(2,6-dichlorobenzoylamino)-1H-pyrazole-3-carboxamide, reference compound]
CDK14 cellular engagement screen result (CDK14 [2]; 1 μM, screen of library of reported CDK inhibitors): efficient CDK14 inhibitor

CN(C)CC/C=C/C(=O)Nc1cccc(N2CCC(NC(=O)c3n[nH]cc3NC(=O)c3c(Cl)cccc3Cl)CC2)c1.O=C(O)C(F)(F)F [Compound 56]
HCT116 toxicity (HCT116 cell line): low HCT116 toxicity
activity in the cellular pull-down assay (CDK14 [2]): not active, or weakly active

Reference: PMC6886737 (Bioorganic & medicinal chemistry letters, 2019)
